Data on one molecule can be found in publication PMC6934184, “Selective DNA-PKcs inhibition extends the therapeutic index of localized radiotherapy and chemotherapy” (The Journal of Clinical Investigation, 2019).

This test deals with T1, NTRK1 (TRKA) (Homo sapiens, UniProt P04629).
T1 construct: purchased Thermo Fisher Scientific (Life Technologies) SelectScreen
Description: SelectScreen Z'LYTE. In kind it is biochemical. In a few lines:
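Percent values come from Thermo SelectScreen profiling of NU5455, combining activity and binding assays. CSF1R was run in Z'LYTE format at Km app ATP, and CAMK1 in Adapta format with ATP listed at 10.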

T1 sequence (P04629 33-796): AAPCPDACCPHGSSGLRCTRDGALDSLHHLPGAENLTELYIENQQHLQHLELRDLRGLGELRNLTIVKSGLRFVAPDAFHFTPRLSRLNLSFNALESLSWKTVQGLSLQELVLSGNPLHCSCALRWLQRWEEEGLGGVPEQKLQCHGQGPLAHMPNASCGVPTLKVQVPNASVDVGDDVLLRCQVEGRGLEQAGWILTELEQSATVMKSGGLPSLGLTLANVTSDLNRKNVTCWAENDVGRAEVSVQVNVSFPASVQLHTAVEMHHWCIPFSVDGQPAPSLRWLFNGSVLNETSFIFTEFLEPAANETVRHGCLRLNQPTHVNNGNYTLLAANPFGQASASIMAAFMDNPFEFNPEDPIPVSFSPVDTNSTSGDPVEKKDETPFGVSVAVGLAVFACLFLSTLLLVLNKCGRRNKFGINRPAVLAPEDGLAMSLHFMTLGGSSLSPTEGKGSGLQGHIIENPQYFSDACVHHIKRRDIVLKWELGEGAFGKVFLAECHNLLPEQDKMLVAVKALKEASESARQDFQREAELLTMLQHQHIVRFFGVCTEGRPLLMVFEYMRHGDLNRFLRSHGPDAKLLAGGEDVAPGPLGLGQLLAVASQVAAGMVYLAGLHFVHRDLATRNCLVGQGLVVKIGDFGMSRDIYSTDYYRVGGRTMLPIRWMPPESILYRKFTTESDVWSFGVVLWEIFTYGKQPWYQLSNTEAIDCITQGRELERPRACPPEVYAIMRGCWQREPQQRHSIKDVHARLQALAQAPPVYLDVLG

For the molecule `CN(C(=O)CN1CCOCC1)c1ccc2sc3c(-c4cccc5c(=O)cc(N6CC7CCC(C6)O7)oc45)cccc3c2c1` [NU5455], 1 µM produced 1.3% inhibition.
